Test results taken from patent US11357230B2, “Herbicidal amides” (FMC Corporation, priority 2017, dated 2022).

Experiments:
Type in all cases: in vivo
[1] = test system: barnyardgrass (Echinochloa crus-galli); test: Test A postemergence, barnyardgrass; conditions: approximately 10 d
Description: (§1) Seeds of plant species selected from barnyardgrass (Echinochloa crus-galli), kochia (Kochia scoparia), ragweed (common ragweed, Ambrosia elatior), ryegrass, Italian (Italian ryegrass, Lolium multiflorum), foxtail, green (green foxtail, Setaria viridis), and pigweed (Amaranthus retroflexus) were planted into a blend of loam soil and sand and treated preemergence with a directed soil spray using test chemicals formulated in a non-phytotoxic solvent mixture which included a surfactant. At the same time, plants selected from these weed species and also wheat (Triticum aestivum), corn (Zea mays), blackgrass (Alopecurus myosuroides), and galium (catchweed bedstraw, Galium aparine) were planted in pots containing the same blend of loam soil and sand and treated with postemergence applications of test chemicals formulated in the same manner. Plants ranged in height from 2 to 10 cm and were in the one- to two-leaf stage for the postemergence treatment. Treated plants and untreated controls were maintained in a greenhouse for approximately 10 d, after which time all treated plants were compared to untreated controls and visually evaluated for injury. Plant response ratings, summarized in Table A, are based on a 0 to 100 scale where 0 is no effect and 100 is complete control. A dash (-) response means no test result.

[2] = test system: blackgrass (Alopecurus myosuroides); test: Test A postemergence, blackgrass; conditions: approximately 10 d
Description: as §1

corn (Zea mays) = test: Test A postemergence, corn; conditions: approximately 10 d
Description: as §1

Foxtail, Giant [3] = test: Test A postemergence, giant foxtail; conditions: approximately 10 d
[4] = test system: galium (catchweed bedstraw, Galium aparine); test: Test A postemergence, galium; conditions: approximately 10 d
Description: as §1

kochia (Kochia scoparia) [5] = test: Test A postemergence, kochia; conditions: approximately 10 d
Description: as §1

[6] = test system: pigweed (Amaranthus retroflexus); test: Test A postemergence, pigweed; conditions: approximately 10 d
Description: as §1

[7] = test system: ragweed (common ragweed, Ambrosia elatior); test: Test A postemergence, ragweed; conditions: approximately 10 d
Description: as §1

[8] = test system: ryegrass, Italian (Italian ryegrass, Lolium multiflorum); test: Test A postemergence, Italian ryegrass; conditions: approximately 10 d
Description: as §1

[9] = test system: wheat (Triticum aestivum); test: Test A postemergence, wheat; conditions: approximately 10 d
Description: as §1

[10] = test system: barnyardgrass (Echinochloa crus-galli); test: Test A preemergence, barnyardgrass; conditions: approximately 10 d
Description: as §1

Foxtail, Giant [11] = test: Test A preemergence, giant foxtail; conditions: approximately 10 d
kochia (Kochia scoparia) [12] = test: Test A preemergence, kochia; conditions: approximately 10 d
Description: as §1

[13] = test system: pigweed (Amaranthus retroflexus); test: Test A preemergence, pigweed; conditions: approximately 10 d
Description: as §1

[14] = test system: ragweed (common ragweed, Ambrosia elatior); test: Test A preemergence, ragweed; conditions: approximately 10 d
Description: as §1

[15] = test system: ryegrass, Italian (Italian ryegrass, Lolium multiflorum); test: Test A preemergence, Italian ryegrass; conditions: approximately 10 d
Description: as §1

[16] = test system: barnyardgrass (Echinochloa crus-galli); test: Test B flooded paddy test, barnyardgrass; conditions: 250 g ai/ha, Flood (paddy water), 13 to 15 d
Procedure: (§2) Plant species in the flooded paddy test selected from rice (Oryza sativa), sedge, umbrella (small-flower umbrella sedge, Cyperus difformis), ducksalad (Heteranthera limosa), and barnyardgrass (Echinochloa crus-galli) were grown to the 2-leaf stage for testing. At time of treatment, test pots were flooded to 3 cm above the soil surface, treated by application of test compounds directly to the paddy water, and then maintained at that water depth for the duration of the test. Treated plants and controls were maintained in a greenhouse for 13 to 15 d, after which time all species were compared to controls and visually evaluated. Plant response ratings, summarized in Table B, are based on a scale of 0 to 100 where 0 is no effect and 100 is complete control. A dash (-) response means no test result.

[17] = test system: ducksalad (Heteranthera limosa); test: Test B flooded paddy test, ducksalad; conditions: 250 g ai/ha, Flood (paddy water), 13 to 15 d
Procedure: as §2

rice (Oryza sativa) = test: Test B flooded paddy test, rice; conditions: 250 g ai/ha, Flood (paddy water), 13 to 15 d
Procedure: as §2

[18] = test system: sedge, umbrella (small-flower umbrella sedge, Cyperus difformis); test: Test B flooded paddy test, umbrella sedge; conditions: 250 g ai/ha, Flood (paddy water), 13 to 15 d
Procedure: as §2

| SMILES | Plant response rating (0 to 100 scale, 0 is no effect, 100 is complete control) ([1]; 31 g ai/ha) | Plant response rating (0 to 100 scale, 0 is no effect, 100 is complete control) ([1]; 125 g ai/ha) | Plant response rating (0 to 100 scale, 0 is no effect, 100 is complete control) ([2]; 31 g ai/ha) | Plant response rating (0 to 100 scale, 0 is no effect, 100 is complete control) ([2]; 125 g ai/ha) | Plant response rating (0 to 100 scale, 0 is no effect, 100 is complete control) (corn (Zea mays); 31 g ai/ha) | Plant response rating (0 to 100 scale, 0 is no effect, 100 is complete control) (corn (Zea mays); 125 g ai/ha) | Plant response rating (0 to 100 scale, 0 is no effect, 100 is complete control) (Foxtail, Giant [3]; 31 g ai/ha) | Plant response rating (0 to 100 scale, 0 is no effect, 100 is complete control) (Foxtail, Giant [3]; 125 g ai/ha) | Plant response rating (0 to 100 scale, 0 is no effect, 100 is complete control) ([4]; 31 g ai/ha) | Plant response rating (0 to 100 scale, 0 is no effect, 100 is complete control) ([4]; 125 g ai/ha) | Plant response rating (0 to 100 scale, 0 is no effect, 100 is complete control) (kochia (Kochia scoparia) [5]; 31 g ai/ha) | Plant response rating (0 to 100 scale, 0 is no effect, 100 is complete control) (kochia (Kochia scoparia) [5]; 125 g ai/ha) | Plant response rating (0 to 100 scale, 0 is no effect, 100 is complete control) ([6]; 31 g ai/ha) | Plant response rating (0 to 100 scale, 0 is no effect, 100 is complete control) ([6]; 125 g ai/ha) | Plant response rating (0 to 100 scale, 0 is no effect, 100 is complete control) ([7]; 31 g ai/ha) | Plant response rating (0 to 100 scale, 0 is no effect, 100 is complete control) ([7]; 125 g ai/ha) | Plant response rating (0 to 100 scale, 0 is no effect, 100 is complete control) ([8]; 31 g ai/ha) | Plant response rating (0 to 100 scale, 0 is no effect, 100 is complete control) ([8]; 125 g ai/ha) | Plant response rating (0 to 100 scale, 0 is no effect, 100 is complete control) ([9]; 31 g ai/ha) | Plant response rating (0 to 100 scale, 0 is no effect, 100 is complete control) ([9]; 125 g ai/ha) | other results |
| --- | --- | --- | --- | --- | --- | --- | --- | --- | --- | --- | --- | --- | --- | --- | --- | --- | --- | --- | --- | --- | --- |
| CN(C)N=C1[C@H](C(=O)Nc2cccc(F)c2F)[C@@H](c2ccc(C(F)(F)F)cc2)CN1C (relative stereo) [Compound 4] | 0 | 60 | 30 | 50 | 0 | 20 | 0 | 80 | 60 | 70 | 0 | 40 | 0 | 70 | 0 | 30 | 0 | 20 | 0 | 20 | Plant response rating (0 to 100 scale, 0 is no effect, 100 is complete control) ([10]; 31 g ai/ha): 50; Plant response rating (0 to 100 scale, 0 is no effect, 100 is complete control) ([10]; 125 g ai/ha): 90; Plant response rating (0 to 100 scale, 0 is no effect, 100 is complete control) (Foxtail, Giant [11]; 31 g ai/ha): 50; Plant response rating (0 to 100 scale, 0 is no effect, 100 is complete control) (Foxtail, Giant [11]; 125 g ai/ha): 90; Plant response rating (0 to 100 scale, 0 is no effect, 100 is complete control) (kochia (Kochia scoparia) [12]; 31 g ai/ha): 0; Plant response rating (0 to 100 scale, 0 is no effect, 100 is complete control) (kochia (Kochia scoparia) [12]; 125 g ai/ha): 30; Plant response rating (0 to 100 scale, 0 is no effect, 100 is complete control) ([13]; 31 g ai/ha): 0; Plant response rating (0 to 100 scale, 0 is no effect, 100 is complete control) ([13]; 125 g ai/ha): 60; Plant response rating (0 to 100 scale, 0 is no effect, 100 is complete control) ([14]; 31 g ai/ha): 0; Plant response rating (0 to 100 scale, 0 is no effect, 100 is complete control) ([14]; 125 g ai/ha): 0; Plant response rating (0 to 100 scale, 0 is no effect, 100 is complete control) ([15]; 31 g ai/ha): 0; Plant response rating (0 to 100 scale, 0 is no effect, 100 is complete control) ([15]; 125 g ai/ha): 10; Plant response rating (scale of 0 to 100, 0 is no effect, 100 is complete control) [16]: 55; Plant response rating (scale of 0 to 100, 0 is no effect, 100 is complete control) [17]: 75; Plant response rating (scale of 0 to 100, 0 is no effect, 100 is complete control) (rice (Oryza sativa)): 0; Plant response rating (scale of 0 to 100, 0 is no effect, 100 is complete control) [18]: 0 |
| CN1C[C@H](c2ccc(C(F)(F)F)cc2)[C@@H](C(=O)Nc2cccc(F)c2F)C1=NNC(=O)OC(C)(C)C (relative stereo) [Compound 8] | 60 | 80 | 30 | 60 | 20 | 70 | 50 | 80 | 60 | 70 | 0 | 0 | 30 | 40 | 0 | 0 | 10 | 60 | 0 | 40 | Plant response rating (0 to 100 scale, 0 is no effect, 100 is complete control) ([10]; 31 g ai/ha): 90; Plant response rating (0 to 100 scale, 0 is no effect, 100 is complete control) ([10]; 125 g ai/ha): 90; Plant response rating (0 to 100 scale, 0 is no effect, 100 is complete control) (Foxtail, Giant [11]; 31 g ai/ha): 90; Plant response rating (0 to 100 scale, 0 is no effect, 100 is complete control) (Foxtail, Giant [11]; 125 g ai/ha): 90; Plant response rating (0 to 100 scale, 0 is no effect, 100 is complete control) (kochia (Kochia scoparia) [12]; 31 g ai/ha): 20; Plant response rating (0 to 100 scale, 0 is no effect, 100 is complete control) (kochia (Kochia scoparia) [12]; 125 g ai/ha): 80; Plant response rating (0 to 100 scale, 0 is no effect, 100 is complete control) ([13]; 31 g ai/ha): 30; Plant response rating (0 to 100 scale, 0 is no effect, 100 is complete control) ([13]; 125 g ai/ha): 80; Plant response rating (0 to 100 scale, 0 is no effect, 100 is complete control) ([14]; 125 g ai/ha): 20; Plant response rating (0 to 100 scale, 0 is no effect, 100 is complete control) ([15]; 31 g ai/ha): 20; Plant response rating (0 to 100 scale, 0 is no effect, 100 is complete control) ([15]; 125 g ai/ha): 70; Plant response rating (scale of 0 to 100, 0 is no effect, 100 is complete control) [16]: 75; Plant response rating (scale of 0 to 100, 0 is no effect, 100 is complete control) [17]: 60; Plant response rating (scale of 0 to 100, 0 is no effect, 100 is complete control) (rice (Oryza sativa)): 0; Plant response rating (scale of 0 to 100, 0 is no effect, 100 is complete control) [18]: 0 |
